Assay results reported in EPA's ToxValDB 9.5 (doi:10.2903/j.efsa.2009.296r).
Values after ≈ are worked out from the molar mass of the structure shown.

Tests used:
[1] = reproductive; oral; feed; reproduction
[2] = system: Oryctolagus sp.; conditions: developmental; development
[3] = system: Coturnix coturnix; conditions: oral
[4] = system: Mus musculus; conditions: acute; oral; mortality
[5] = system: Daphnia magna; conditions: chronic/long-term; duration: 21 days
[6] = system: Anas platyrhynchos; conditions: oral
[7] = system: Apis mellifera; conditions: acute, duration: 48 hours, mortality
[8] = system: Rattus norvegicus
[9] = system: Tagia sp.
[10] = system: Salmo trutta ssp. fario; conditions: acute; duration: 96 hours; mortality
[11] = system: Oncorhynchus mykiss; conditions: chronic/long-term; duration: 28 days

## O=C1C2CC=CCC2C(=O)N1SC(Cl)(Cl)Cl (stereo not drawn) [Captan]
[1]
  NOAEL: 100 mg/kg-day
[2]
  NOAEL: 30 mg/kg-day
[3]; acute, diet, mortality
  LC50: > 800 mg/kg-day
[3]; acute, mortality
  LD50: > 2000 mg/kg
[3]; reproduction developmental, no effects
  NOEC: 83.2 mg/kg-day
[4]
  LD50: > 2000 mg/kg
[5]
  NOEC: 0.56 mg/L
[6]; acute, unspecified, mortality
  LD50: > 2000 mg/kg
[6]; reproductive, unspecified, no effects
  NOEC: 74.4 mg/kg-day
[6]; short-term, feed, mortality
  LC50: > 1040 mg/kg-day
[7]; dermal
  LC50: > 200 µg/piece
[7]; oral, unspecified
  LD50: > 100 µg/piece
[8]; acute, oral, mortality
  LD50: > 2000 mg/kg
[8]; developmental, development
  NOAEL: 10 mg/kg-day
[9]; acute, duration: 14 days, mortality
  LC50: > 519 mg/kg
[9]; chronic/long-term, duration: 8 weeks, reproduction
  NOEC: 11.6 mg/kg
[10]
  LC50: 0.098 µg/mL (≈ 0.326 µM)
[11]
  NOEC: 0.199 mg/L
